These results are taken from patent US20240368556A1, “LIVER ORGANOID MODEL FOR HYPERBILIRUBINEMIA AND METHODS OF MAKING AND USING SAME” (CHILDREN’S HOSPITAL MEDICAL CENTER, priority 2021, published 2024).

“Also recorded” adds a separate entry of the source.

Type in all cases: cell-based, human
In data set [1] the test system is liver organoids. The data set is described as follows: Immunofluorescence of mature liver enzymes and transport proteins. Conditions: 1 mg/L bilirubin (FIGS. 1F-H). The procedure: For maturation induction in HLOs, the day 15 organoids were fed with complete HCM with supplements in addition to low dose bilirubin (1 mg/L). This treatment was continued until day 30 when the organoids were harvested. […] For whole mount immunostains, the organoids were fixed in 4% PFA, permeabilized with 0.1% PBST, blocked with 5% Normal Donkey Serum in 0.1% PBST, and stained with the appropriate primary and secondary antibodies. The images were captured on the Nikon A1 inverted confocal microscope.

Data set [2] concerns CYP3A4. The data set is described as follows: CYP3A4 activity assay (P450-Glo) after rifampicin. Here is the method: (§1) CYP3A4 and CYP1A2 assays were performed by harvesting HLOs, washing in PBS, plating them into a 96 well assay plate, and treating them with rifampicin and omeprazole, respectively, for 24 hours. The assays were then performed using P450-Glo CYP3A4 and CYP1A2 Assay (Promega) and normalized using CellTiter-Glo Luminescent Cell Viability Assay according to manufacturer instructions.

Data set [3] has as its system CYP1A2. The data set can be described thus: CYP1A2 activity assay (P450-Glo) after omeprazole. The procedure: as §1
Data set [4] has as its system CNS HLOs. The data set can be described thus: Bilirubin toxicity in Crigler-Najjar syndrome liver organoids (brightfield). As to conditions: 10 mg/L bilirubin, inactive UGT1A1 gene (FIG. 3H).
Method: On day 27, the mature organoids were treated with bilirubin (1-10 mg/L), doxycycline (100 ng/mL; added 3 days prior to activate gene expression) and/or additionally with drugs such as hydrocortisone, dexamethasone, ketoconazole and mifepristone (1-2 μM for each) for 5 days and then harvested for downstream assays. […] Images were captured on the KEYENCE BZ-X710 Fluorescence Microscope (Keyence).
The test system of data set [5] is liver organoids. The data set can be described thus: Hyperbilirubinemia induction: HLOs treated with varying bilirubin concentrations (brightfield). Conditions: bilirubin 1, 2, 5 or 10 mg/L, 1 and 4 days (FIG. 3B). Here is the method: (§2) On day 27, the mature organoids were treated with bilirubin (1-10 mg/L), doxycycline (100 ng/mL; added 3 days prior to activate gene expression) and/or additionally with drugs such as hydrocortisone, dexamethasone, ketoconazole and mifepristone (1-2 μM for each) for 5 days and then harvested for downstream assays. Bilirubin assay was performed using a colorimetric kit (ab235627 from Abcam). RNA was isolated using the RNeasy mini kit (Qiagen, Hilden, Germany). Reverse transcription was carried out using the High-Capacity cDNA Reverse Transcription Kit (Thermo Fisher Scientific Inc.) according to manufacturer's protocol. qPCR was carried out using TaqMan gene expression master mix (Applied Biosystems) on a QuantStudio 5 Real-Time PCR System (Thermo Fisher Scientific Inc.). All primers and probe information for each target gene was obtained from the Universal ProbeLibrary Assay Design Center (available on the World Wide Web at lifescience.roche.com/en_us/brands/universal-probe-library.html). Images were captured on the KEYENCE BZ-X710 Fluorescence Microscope (Keyence).

In data set [6] the test system is mGULO organoids. The data set is described as follows: Survival and morphology of mGULO organoids with doxycycline induction. Conditions: Dox 10, 100, 1000 ng/mL, with bilirubin (FIG. 2O).
The subject of data set [7] is liver organoids. The data set can be described thus: Bilirubin assay measuring unconjugated and conjugated bilirubin in liver organoids. Conditions: liver organoids in 10 mg/L bilirubin; drug 1 or 5 μM (FIG. 4B, 4D). The procedure: Bilirubin levels were measured by collecting the supernatant from HLOs treated with bilirubin and serum from rats. The supernatant and serum were assayed with Bilirubin Assay Kit (Total and Direct, Colorimetric) (abcam) and Bilirubin Assay Kit (Sigma-Aldrich) according to manufacturer instructions.

For data set [8], the system named is UGT1A1. The data set is described as follows: RT-qPCR of UGT1A1 in liver organoids. As to conditions: 10 mg/L bilirubin plus drug vs 10 mg/L bilirubin alone (FIG. 4E). Here is the method:
as §2
For orientation: Real-time PCR tracks product formation cycle by cycle.

The test system of data set [9] is NRF2. The data set can be described thus: RT-qPCR of NRF2 in liver organoids. As to conditions: 10 mg/L bilirubin plus drug vs 10 mg/L bilirubin alone (FIG. 4E). The procedure: as §2
Data set [10] deals with liver organoids. The data set is described as follows: RNA sequencing of HLOs. As to conditions: 10 mg/L bilirubin and 1 μM mifepristone vs control (FIG. 4F). The procedure:
RNA was isolated using the RNeasy mini kit (Qiagen). […] All the samples were amplified with TaqMan Gene Expression Assays and normalized with 18S rRNA Endogenous Control. For RNA sequencing, the extracted RNA quality was evaluated with an Agilent 2100 Bioanalyzer (Agilent). A sequence library was prepared using a TruSeq Stranded mRNA kit (Illumina) and sequenced using NovaSeq 6000 (Illumina). Reads were aligned to human genome assembly hg38 and quantified using the quasi-mapper Salmon (v1.8.0). Gene-expression analysis was performed using the R Bioconductor package DESeq2 (v1.36.0). The read count matrix was normalized by size factors, and a variance stabilizing transformation (VST) was applied to the normalized expression data. The data was visualized using clusterProfiler (v.4.4.1) and pheatmap (v1.0.12) packages. […] RNA sequencing parameters were 150 bp paired-end sequencing at a depth of 20M reads per samples. Fastq read files for each sample were obtained and then aligned using Salmon, a quasi-mapping tool that aligns and quantifies transcripts using RNA-seq data. Raw transcript counts and normalized transcripts per million (TPM) values were obtained and analyzed for differential expression with DESeq2. […]

For data set [11], the system named is UGT1A1 gene. The data set is described as follows: ChIP-PCR and ChIP-qPCR of hyperbilirubinemic organoids. As to conditions: 10 mg/L bilirubin, 1 μM drug (FIG. 4H).

As to `C=CC1=C(C)/C(=C/c2[nH]c(Cc3[nH]c(/C=C4\NC(=O)C(C)=C4C=C)c(C)c3CCC(=O)O)c(CCC(=O)O)c2C)NC1=O` [bilirubin], in [1], the “expression of CYP2E1, CYP7A1, MPR1, MRP3, PROX1, OATP2 (immunofluorescence)” value is “expressed mature liver enzymes and transport proteins”. In data set [2] (1 mg/L bilirubin-treated organoids, after rifampicin, vs untreated control (FIG. 1E)), the CYP3A4 activity entry is given as “increased cytochrome activity”. For the same compound, the CYP1A2 activity result in data set [3] (1 mg/L bilirubin-treated organoids, after omeprazole, vs untreated control (FIG. 1E)) is reported as “increased cytochrome activity”. For the same compound, the “organoid toxicity in CNS HLOs” value in data set [4] is given as “liver organoid toxicity”. The “organoid morphology and intracellular bilirubin accumulation” value in data set [5] is “significant morphological changes and intracellular accumulation of bilirubin”.

Turning to `C[C@H]1c2cccc(O)c2C(=O)C2=C(O)[C@]3(O)C(=O)C(C(N)=O)=C(O)[C@@H](N(C)C)[C@@H]3[C@@H](O)[C@@H]21` [doxycycline], the “gross morphology of mGULO organoids” value in [6] is “maintain their gross morphology”. For the same compound, the CYP3A4 activity result in data set [2] (mGULO organoids, Dox plus low dose bilirubin, rifampicin insult (FIG. 2P)) was “increased”. In data set [3] (mGULO organoids, Dox plus low dose bilirubin, omeprazole insult (FIG. 2P)), the CYP1A2 activity result is reported as “increased”.

Regarding `C[C@]12CCC(=O)C=C1CC[C@@H]1[C@@H]2[C@@H](O)C[C@@]2(C)[C@H]1CC[C@]2(O)C(=O)CO` [hydrocortisone], in data set [7], the “bilirubin conjugation (unconjugated vs conjugated bilirubin)” value was “decreased bilirubin conjugation ability”. In data set [8], the UGT1A1 expression result is recorded as “depressed”.

Take `CC(=O)N1CCN(c2ccc(OCC3COC(Cn4ccnc4)(c4ccc(Cl)cc4Cl)O3)cc2)CC1` (stereo not drawn) [ketoconazole]: the “bilirubin conjugation (unconjugated vs conjugated bilirubin)” value in data set [7] was “improved conjugation and metabolism of bilirubin; also recorded: increased bilirubin conjugation”. For the same compound, in [9], the NRF2 expression result was “improved”. Moreover, the UGT1A1 expression result in [8] is “elevated”.

For `CC#C[C@]1(O)CC[C@H]2[C@@H]3CCC4=CC(=O)CCC4=C3[C@@H](c3ccc(N(C)C)cc3)C[C@@]21C` [mifepristone], the “bilirubin conjugation (unconjugated vs conjugated bilirubin)” value in [7] is “improved conjugation and metabolism of bilirubin; also recorded: increased bilirubin conjugation”. The NRF2 expression result in data set [9] was “improved”. Further, the UGT1A1 expression result in data set [8] is recorded as “elevated”. Besides, in data set [10], the “gene expression / enriched pathways” value is given as “enrichment of many genes involved in liver function”. In addition, the “silencing of the UGT1A1 gene (MECP2)” value in [11] was “reverses this silencing”.
